Reference: patent US20160067267A1, “MYO-INOSITOL TRISPYROPHOSPHATE AS AN ANTI-OBESITY AGENT” (NormOxys, Inc., priority 2013, published 2016)

Tests used:
[1] = First study: prevention of weight gain on high fat diet, ITPP in drinking water, 120 days; format: in vivo
Protocol: (§1) Experiments were conducted in analogue ways. First, 30 Balb/c-mice, 10 mice in each group, were assessed. Group 1 was a control group; mice were fed with normal mouse food and water for the whole duration of the experiment (120 days). […] Group III was fed with high fat diet, normal food and, instead of normal water, animals drank an ITPP solution for the duration of the experiment of (ITPP). The concentration was 10 g ITPP per liter water, containing no calcium salt, pH˜6.8-7.2).
(§2) The HFD was 235HF (U8955 version 9) casein 20%, corn starch 13%, sucrose 24.3%, cellulose 5%, malto dextrin 2.2%, lard 25%, soja oil 2.5%, mineral 205B SAFE 7%, and vitamine 200 SAFE 1%.
(§3) All food, water, and ITPP were given ad libitum. In 5 days intervals, body weights from each animal were recorded.

[2] = Second study: prevention of weight gain on high fat diet, ITPP in drinking water, 70 days; format: in vivo; conditions: FIG. 2
Protocol: as §1, §2, §3
As before, in 5 days intervals body weights of the Balb/c-mice were measured.

[3] = Third study: weight loss of overweight mice on normal food drinking ITPP solution, about 30 days; format: in vivo, Balb/c-mice; conditions: FIG. 3, normal mouse food, water with ITPP 10 g per liter
Protocol: In a third study the group with the 10 mice which had gained weight (˜30%) was divided in two groups (5 animals per cage). For 1 month, one group drank water while the other one drank an ITPP-solution (10 g/L) for about 30 days until the date of observation. The food was normal mouse food as before (pellets from SAFE, France). The body weights of the mice were measured 4 times until the final day.

O=P1(O)OC2C3OP(=O)(O)OP(=O)(O)OC3C3OP(=O)(O)OP(=O)(O)OC3C2OP(=O)(O)O1 (stereo not drawn) [ITPP, inositol-tripyrophosphate]
weight of Balb/c mice ([1]; FIG. 1, HFD + ITPP solution 10 g per liter water ad libitum, oral, 70 days after beginning, HFD/water mice ~40 g): ~30 g | tolerability of ITPP solution ([1]; FIG. 1, HFD + ITPP solution 10 g/L ad libitum, oral): well tolerated | first day with significant differences in weight, HFD/water versus HFD/ITPP ([1]; HFD + ITPP in water versus HFD + water): 10 days | weight increase of ITPP drinking group on HFD ([1]; HFD + ITPP in water, whole period of the experiment, compared with normal-food control group): did not increase their weight at all | mortality and general condition ([1]; orally offered ITPP solution with HFD, two periods (120 days and 70 days), fur, eyes, vitality normal): No animal died or was suffering | tolerability of ITPP ([2]; HFD + ITPP 10 g/L in drinking water): tolerated very well | weight of Balb/c mice ([2]; HFD/ITPP consumers, 10 g/L in drinking water, 70 days, HFD/water mice ~40 g): < 30 g | weight gain ([2]; HFD/ITPP consumers, 70 days, HFD/water mice gained approximately 30%): did not gain significant weight | weight loss versus untreated group [3]: lost considerably more weight than the untreated group
